Test results from patent US8148425B2, “Pharmaceutical composition containing phloroglucinol and paracetamol” (Promindus (Actions Promotionnelles Dans l'Industrie et le …, priority 2007, dated 2012).
Where “and” joins values, the source holds several entries; their conditions need not be identical. Equal values may be shown once.

Tested on: painful spasm caused by intraperitoneal injection of phenylbenzoquinone in mice
Assay: Siegmund test or Writhing test (phenylbenzoquinone-induced painful spasm)
Format: in vivo, mice (male, Swiss strain)
Details: esophageal tube, 30 min before phenylbenzoquinone
Procedure: During said tests, the antispasmodic and analgesic activity of phloroglucinol, of paracetamol, and of phloroglucinol combined with paracetamol was evaluated using the Siegmund test or “Writhing test”. The principle of this test, which is familiar to those skilled in the art, is briefly summarized hereinafter. The intraperitoneal injection of phenylbenzoquinone in mice causes a painful spasm, which can be reduced with antispasmodic substances (causal medication) and analgesic substances (symptomatic medication).
The test was carried out on batches of 10 male mice, of the Swiss strain, having an average weight of 22 g±2. The spasmodic and painful syndrome caused by the intraperitoneal injection of 0.25 ml of the phenylbenzoquinone solution is characterized by hind limb stretching movements and dorso-abdominal musculature twisting movements, which accounted for a period of time of 30 min, starting from 15 min following the administration of the phenylbenzoquinone.
An antispasmodic and analgesic effect manifests itself through a reduction in the number of spasmodic attacks, which is dependent on the dose. For each test, the substance being studied is administered by means of an esophageal tube, 30 min before the phenylbenzoquinone.
For experimental ease, the following were used: • phloroglucinol Lyoc (lyophilizate), and • effervescent paracetamol (tablet); the two substances being perfectly soluble and miscible.
To test the products administered in isolation (prior art), on the one hand, phloroglucinol lyocs (lyophilized systems) were dissolved in distilled water, and on the other hand, effervescent paracetamol tablets were solubilized in distilled water (the solution obtained has a pH of 5).
To test the pharmaceutical compositions of the invention, such phloroglucinol lyocs (lyophilized systems) and such effervescent paracetamol tablets were dissolved and solubilized together. The solution which contains the two active ingredients itself also has a pH of 5.
Given the metabolism in this animal species, the mouse, which is more accelerated than in humans, those skilled in the art, specialists in pharmacology, most commonly use doses which are multiples of the human dose in order to be able to readily objectivize the results.
The results are expressed as percentage of inhibition of the spasm and of the pain relative to control animals which receive only 20 ml/kg of distilled water.

Structure (SMILES) | % inhibition of the spasm and of the pain relative to control animals (paracetamol 50 mg/kg, mice (repeated in each of four series)) | % inhibition of the spasm and of the pain relative to control animals (phloroglucinol 40 mg/kg, mice) [%] | % inhibition of the spasm and of the pain relative to control animals (phloroglucinol 80 mg/kg, mice) [%] | % inhibition of the spasm and of the pain relative to control animals (phloroglucinol 100 mg/kg, mice) [%] | % inhibition of the spasm and of the pain relative to control animals (phloroglucinol 120 mg/kg, mice) [%]
CC(=O)Nc1ccc(O)cc1 [Paracetamol, 4-acetylaminophenol] | 40% and 39% and 37% |  |  |  | 
Oc1cc(O)cc(O)c1 [Phloroglucinol, 1,3,5-trihydroxy-benzene] |  | 7 | 21 | 27 | 32
